Source: PubChem BioAssay AID1963843 (Molecular Pharmacology Branch, DTP, NCI, 2024)

Test system: 616215-338-R-J1-PDC complex spheroid viability
Test: Anticancer human tumor 616215-338-R-J1-PDC patient-derived colon adenocarcinoma cell line growth inhibition [POLQ]
Conditions: for IC50: curve of first compound; for viability, T/C: stronger effect = lower value; active = viability on the fitted dose curve at most 10% of control; inactive = the rest
How it was run: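 PDC + HUVEC + MSC complex spheroids; POLQ inhibitors ± partner drugs; top conc. at/near clinical Cmax, else 10 microM (SN-38 1 microM), half-log dilutions; 37 degrees C, 5% CO2.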

[1] = second compound 0.0316 µM, first compound 0.0316 µM
[2] = second compound 0.0316 µM, first compound 0.1 µM
[3] = second compound 0.0316 µM, first compound 0.316 µM
[4] = second compound 0.0316 µM, first compound 1 µM
[5] = second compound 0.0316 µM, first compound 3.16 µM
[6] = second compound 0.0316 µM, first compound 10 µM
[7] = second compound 0.1 µM, first compound 0.0316 µM
[8] = second compound 0.1 µM, first compound 0.1 µM
[9] = second compound 0.1 µM, first compound 0.316 µM
[10] = second compound 0.1 µM, first compound 1 µM
[11] = second compound 0.1 µM, first compound 3.16 µM
[12] = second compound 0.1 µM, first compound 10 µM
[13] = second compound 0.316 µM, first compound 0.0316 µM
[14] = second compound 0.316 µM, first compound 0.1 µM
[15] = second compound 0.316 µM, first compound 0.316 µM
[16] = second compound 0.316 µM, first compound 1 µM
[17] = second compound 0.316 µM, first compound 3.16 µM
[18] = second compound 0.316 µM, first compound 10 µM
[19] = second compound 1 µM, first compound 0.0316 µM
[20] = second compound 1 µM, first compound 0.1 µM
[21] = second compound 1 µM, first compound 0.316 µM
[22] = second compound 1 µM, first compound 1 µM
[23] = second compound 1 µM, first compound 3.16 µM
[24] = second compound 1 µM, first compound 10 µM
[25] = second compound 3.16 µM, first compound 0.0316 µM
[26] = second compound 3.16 µM, first compound 0.1 µM
[27] = second compound 3.16 µM, first compound 0.316 µM
[28] = second compound 3.16 µM, first compound 1 µM
[29] = second compound 3.16 µM, first compound 3.16 µM
[30] = second compound 3.16 µM, first compound 10 µM
[31] = second compound 10 µM, first compound 0.0316 µM
[32] = second compound 10 µM, first compound 0.1 µM
[33] = second compound 10 µM, first compound 0.316 µM
[34] = second compound 10 µM, first compound 1 µM
[35] = second compound 10 µM, first compound 3.16 µM
[36] = second compound 10 µM, first compound 10 µM
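Note: spheroids exposed to compounds for one week before readout.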
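Throughout, for viability, T/C: percent viability relative to DMSO vehicle wells taken as 100%.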

CC1COCCN1c1cc(-c2ccnn2C)c2ccnc(-c3ccn[nH]3)c2n1 (centres undefined) + COC1C(OC(N)=O)C(O)C(Oc2ccc3c(O)c(NC(=O)c4ccc(O)c(CC=C(C)C)c4)c(=O)oc3c2C)OC1(C)C
610 nM: IC50 (second compound 1 µM)
inactive: viability, T/C [1] 102% | viability, T/C [2] 90.4% | viability, T/C [3] 70.4% | viability, T/C [4] 48.4% | viability, T/C [5] 31.5% | viability, T/C [6] 33% | viability, T/C [7] 96.4% | viability, T/C [8] 91.1% | viability, T/C [9] 60.8% | viability, T/C [10] 44% | viability, T/C [11] 30.5% | viability, T/C [12] 38.7% | viability, T/C [13] 99.6% | viability, T/C [14] 86.1% | viability, T/C [15] 59.3% | viability, T/C [16] 46.1% | viability, T/C [17] 29.7% | viability, T/C [18] 40.2% | viability, T/C [19] 103% | viability, T/C [20] 84.8% | viability, T/C [21] 58.9% | viability, T/C [22] 46.1% | viability, T/C [23] 29% | viability, T/C [24] 36.1% | viability, T/C [25] 96.1% | viability, T/C [26] 86.4% | viability, T/C [27] 68.6% | viability, T/C [28] 47.6% | viability, T/C [29] 28.7% | viability, T/C [30] 30.9% | viability, T/C [31] 96.8% | viability, T/C [32] 86.9% | viability, T/C [33] 57.3% | viability, T/C [34] 47.7% | viability, T/C [35] 29.1% | viability, T/C [36] 31%
862 nM: IC50 (second compound 0.0316 µM)
635 nM: IC50 (second compound 10 µM)
619 nM: IC50 (second compound 0.316 µM)
608 nM: IC50 (second compound 0.1 µM)
804 nM: IC50 (second compound 3.16 µM)

CC1COCCN1c1cc(C2(S(C)(=N)=O)CC2)nc(-c2ccnc3[nH]ccc23)n1 (centres undefined) + COC1C(OC(N)=O)C(O)C(Oc2ccc3c(O)c(NC(=O)c4ccc(O)c(CC=C(C)C)c4)c(=O)oc3c2C)OC1(C)C
> 10000 nM: IC50 (second compound 0.0316 µM) | IC50 (second compound 0.1 µM) | IC50 (second compound 0.316 µM) | IC50 (second compound 1 µM) | IC50 (second compound 3.16 µM) | IC50 (second compound 10 µM)
inactive: viability, T/C [1] 93.8% | viability, T/C [2] 104% | viability, T/C [3] 100% | viability, T/C [4] 98.5% | viability, T/C [5] 98.5% | viability, T/C [6] 67.1% | viability, T/C [7] 98.2% | viability, T/C [8] 91.7% | viability, T/C [9] 101% | viability, T/C [10] 96.6% | viability, T/C [11] 92.3% | viability, T/C [12] 73.9% | viability, T/C [13] 97.7% | viability, T/C [14] 103% | viability, T/C [15] 105% | viability, T/C [16] 95.5% | viability, T/C [17] 97.2% | viability, T/C [18] 65.1% | viability, T/C [19] 99.3% | viability, T/C [20] 99.1% | viability, T/C [21] 108% | viability, T/C [22] 104% | viability, T/C [23] 94.2% | viability, T/C [24] 63.9% | viability, T/C [25] 107% | viability, T/C [26] 100% | viability, T/C [27] 108% | viability, T/C [28] 94% | viability, T/C [29] 94.5% | viability, T/C [30] 60.6% | viability, T/C [31] 96.8% | viability, T/C [32] 95.3% | viability, T/C [33] 100% | viability, T/C [34] 98.6% | viability, T/C [35] 98.7% | viability, T/C [36] 61.8%
